Source: patent publication US20110105514A1, “5,6,7,8-TETRAHYDRO-IMIDAZO[1,5-A]PYRAZINE COMPOUNDS” (priority 2008, published 2011)
Like-named read-outs stand apart in the source and are kept apart here.

Columns and labels:
rat [1] = conditions: cited from earlier work
rat [2] = conditions: rat model; cited from earlier work
rat [3] = conditions: cited from earlier work; remark: listed apart in the source
human orexin-1 receptor = biological target: T1, human orexin-1 receptor (Homo sapiens, UniProt O43613); experiment: FLIPR calcium assay of orexin receptor antagonistic activity, CHO cells expressing the human orexin-1 receptor; assay type: cell-based; conditions: 3 nM orexin-A as agonist
T1 construct: expressed in transfected cells; host or cells: Chinese hamster ovary (CHO) cells
T1 sequence (O43613 1-425): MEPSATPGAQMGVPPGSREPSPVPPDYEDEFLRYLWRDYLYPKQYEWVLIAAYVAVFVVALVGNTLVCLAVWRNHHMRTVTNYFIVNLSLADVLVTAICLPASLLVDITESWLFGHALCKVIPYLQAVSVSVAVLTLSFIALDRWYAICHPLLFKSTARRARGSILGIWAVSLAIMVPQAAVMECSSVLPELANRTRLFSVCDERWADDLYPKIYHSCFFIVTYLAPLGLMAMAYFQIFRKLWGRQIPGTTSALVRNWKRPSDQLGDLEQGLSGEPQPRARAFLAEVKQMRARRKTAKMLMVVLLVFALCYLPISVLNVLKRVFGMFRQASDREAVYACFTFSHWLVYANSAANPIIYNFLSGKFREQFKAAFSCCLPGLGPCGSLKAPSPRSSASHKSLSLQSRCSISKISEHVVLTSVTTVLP
Experimental: (§1) The orexin receptor antagonistic activity of the compounds of formula (I) is determined in accordance with the following experimental method.
(§2) Chinese hamster ovary (CHO) cells expressing the human orexin-1 receptor and the human orexin-2 receptor, respectively, are grown in culture medium (Ham F-12 with L-Glutamine) containing 300 μg/ml G418, 100 U/ml penicillin, 100 μg/ml streptomycin and 10% heat inactivated fetal calf serum (FCS). The cells are seeded at 20′000 cells/well into 384-well black clear bottom sterile plates (Greiner). The seeded plates are incubated overnight at 37° C. in 5% CO2.
(§3) Human orexin-A as an agonist is prepared as 1 mM stock solution in MeOH:water (1:1), diluted in HBSS containing 0.1% bovine serum albumin (BSA), NaHCO3: 0.375 g/l and 20 mM HEPES for use in the assay at a final concentration of 3 nM.
(§4) Antagonists are prepared as 10 mM stock solution in DMSO, then diluted in 384-well plates using DMSO followed by a transfer of the dilutions into in HBSS containing 0.1% bovine serum albumin (BSA), NaHCO3: 0.375 g/l and 20 mM HEPES. On the day of the assay, 50 μl of staining buffer (HBSS containing 1% FCS, 20 mM HEPES, NaHCO3: 0.375 g/l, 5 mM probenecid (Sigma) and 3 μM of the fluorescent calcium indicator fluo-4 AM (1 mM stock solution in DMSO, containing 10% pluronic) is added to each well. The 384-well cell-plates are incubated for 50 min at 37° C. in 5% CO2 followed by equilibration at RT for 30-120 min before measurement.
(§5) Within the Fluorescent Imaging Plate Reader (FLIPR Tetra, Molecular Devices), antagonists are added to the plate in a volume of […], incubated for 10 min and finally […] of agonist is added. Fluorescence is measured for each well at 1 second intervals, and the height of each fluorescence peak is compared to the height of the fluorescence peak induced by 3 nM orexin-A with vehicle in place of antagonist. For each antagonist, the IC50 value (the concentration of compound needed to inhibit 50% of the agonistic response) is determined and may be normalized using the obtained IC50 value of a on-plate reference compound (normalized values in Table 1 indicated by an asterisk*).
(§6) The calculated IC50 values of the compounds may fluctuate depending on the daily cellular assay performance. Fluctuations of this kind are known to those skilled in the art.

human orexin-2 receptor = biological target: T2, human orexin-2 receptor (Homo sapiens, UniProt O43614); experiment: FLIPR calcium assay of orexin receptor antagonistic activity, CHO cells expressing the human orexin-2 receptor; assay type: cell-based; conditions: 3 nM orexin-A as agonist
T2 construct: expressed in transfected cells; host or cells: Chinese hamster ovary (CHO) cells
T2 sequence (O43614 1-444): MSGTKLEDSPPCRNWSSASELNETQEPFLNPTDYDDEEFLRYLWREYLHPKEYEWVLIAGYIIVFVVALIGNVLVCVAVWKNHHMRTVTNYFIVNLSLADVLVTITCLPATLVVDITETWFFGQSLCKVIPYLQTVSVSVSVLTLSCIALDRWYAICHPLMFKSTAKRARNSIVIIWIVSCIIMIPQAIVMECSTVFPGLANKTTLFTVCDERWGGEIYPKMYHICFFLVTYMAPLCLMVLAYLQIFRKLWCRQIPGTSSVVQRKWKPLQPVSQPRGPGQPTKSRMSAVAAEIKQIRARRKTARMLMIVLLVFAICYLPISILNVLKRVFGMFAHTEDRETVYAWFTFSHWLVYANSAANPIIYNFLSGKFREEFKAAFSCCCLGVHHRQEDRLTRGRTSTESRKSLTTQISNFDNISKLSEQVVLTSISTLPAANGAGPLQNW
Experimental: as §1, §2, §3, §4, §5, §6

[4] = value not normalized, read-out: OX1 IC50
[5] = value not normalized, read-out: OX2 IC50
[6] = normalized using IC50 of on-plate reference compound (asterisk), read-out: OX1 IC50 (in nM), normalized value
[7] = normalized using IC50 of on-plate reference compound (asterisk), read-out: OX2 IC50 (in nM), normalized value

Structure (SMILES) | IC50 (human orexin-1 receptor; [4]) [nM] | IC50 (human orexin-2 receptor; [5]) [nM] | IC50 (human orexin-1 receptor; [6]) [nM] | IC50 (human orexin-2 receptor; [7]) [nM] | also measured
CNC(=O)[C@@H](c1ccccc1)N1CCc2cc(OC)c(OC)cc2[C@@H]1CCc1ccc(C(F)(F)F)cc1 [(2R)-2-{(1S)-6,7-dimethoxy-1-[2-(4-trifluoromethyl-phenyl)-ethyl]-3,4-dihydro-1H-isoquinolin-2-yl}-N-methyl-2-phenyl-acetamide] |  |  |  |  | alertness (active wake and locomotion) (rat [1]): decrease alertness; time spent in both REM and NREM sleep (rat [1]): dose-dependently increase the time spent in both REM and NREM sleep; memory function (rat [2]): enhance memory function; activity in post-traumatic stress disorder model (rat [3]): active
CNC(=O)[C@@H](c1ccccc1)N1CCn2c(C3CC3)nc(Cl)c2[C@@H]1CCc1ccc(Cl)c(F)c1 [Example 3, (R)-2′-{1-chloro-(S)-8-[2-(4-chloro-3-fluoro-phenyl)-ethyl]-3-cyclopropyl-5,6-dihydro-8H-imidazo[1,5-a]pyrazin-7-yl}-N-methyl-2′-phenyl-acetamide] | 43 | 11 |  |  | 
CNC(=O)[C@@H](c1ccccc1)N1CCn2c(SC)nc(Cl)c2[C@@H]1CCc1ccc(C(F)(F)F)c(F)c1F [Example 8, (R)-2′-{1-chloro-(8)-8-[2-(2,3-difluoro-4-trifluoromethyl-phenyl)-ethyl]-3-methylsulfanyl-5,6-dihydro-8H-imidazo[1,5-a]pyrazin-7-yl}-N-methyl-2′-phenyl-acetamide] | 56 | 21 |  |  | 
CCc1nc(Cl)c2n1CCN([C@@H](C(=O)NC)c1ccccc1)[C@H]2CCc1cccc(OC(F)F)c1 [Example 11, (R)-2′-{1-chloro-(S)-8-[2-(3-difluoromethoxy-phenyl)-ethyl]-3-ethyl-5,6-dihydro-8H-imidazo[1,5-a]pyrazin-7-yl}-N-methyl-2′-phenyl-acetamide] | 45 | 2 |  |  | 
CNC(=O)[C@@H](c1ccccc1)N1CCn2c(C(F)(F)F)nc(C)c2[C@@H]1CCc1ccc(C(F)(F)F)cc1 [Example 13a, N-methyl-(R)-2′-{1-methyl-3-trifluoromethyl-(S)-8-[2-(4-trifluoromethyl-phenyl)-ethyl]-5,6-dihydro-8H-imidazo[1,5-a]pyrazin-7-yl}-2′-phenyl-acetamide] | 259 | 8 |  |  | 
CCc1nc(C2CC2)n2c1C(CCc1ccc(C(F)(F)F)c(F)c1)N(C(C(=O)NC)c1ccccc1)CC2 [Example 17, (R)-2′-{3-cyclopropyl-1-ethyl-(8)-8-[2-(3-fluoro-4-trifluoromethyl-phenyl)-ethyl]-5,6-dihydro-8H-imidazo[1,5-a]pyrazin-7-yl}-N-methyl-2′-phenyl-acetamide] |  |  | 384 | 8 | 
CCOc1nc(C(F)(F)F)c2n1CCN([C@@H](C(=O)NC)c1ccccc1)[C@H]2CCc1ccc(C(F)(F)F)cc1 [Example 21, (R)-2′-{3-ethoxy-1-trifluoromethyl-(S)-8-[2-(4-trifluoromethyl-phenyl)-ethyl]-5,6-dihydro-8H-imidazo[1,5-a]pyrazin-7-yl}-N-methyl-2′-phenyl-acetamide] |  |  | 3540 | 63 | 
CCc1nc(S(C)(=O)=O)c2n1CCN([C@@H](C(=O)NC)c1ccccc1)[C@H]2CCc1ccc(C(F)(F)F)cc1 [Example 23, (R)-2′-{3-ethyl-1-methanesulfonyl-(S)-8-[2-(4-trifluoromethyl-phenyl)-ethyl]-5,6-dihydro-8H-imidazo[1,5-a]pyrazin-7-yl}-N-methyl-2′-phenyl-acetamide] |  |  | 1680 | 25 | 
CNC(=O)[C@@H](c1ccccc1)N1CCn2c(C3CC3)nc(Cl)c2[C@@H]1CCc1cccc(C(F)(F)F)c1 [Example 26, (R)-2′-{1-chloro-3-cyclopropyl-(S)-8-[2-(3-trifluoromethyl-phenyl)-ethyl]-5,6-dihydro-8H-imidazo[1,5-a]pyrazin-7-yl}-N-methyl-2′-phenyl-acetamide] |  |  | 91 | 7 | 
CCc1nc(C(F)(F)F)n2c1[C@H](CCc1ccc(C(F)(F)F)cc1)N([C@@H](C(=O)NC)c1ccccc1)CC2 [Example 28, (R)-2′-{1-ethyl-3-trifluoromethyl-(8)-8-[2-(4-trifluoromethyl-phenyl)-ethyl]-5,6-dihydro-8H-imidazo[1,5-a]pyrazin-7-yl}-N-methyl-2′-phenyl-acetamide] |  |  | 505 | 13 | 
